Here are results for 19 compounds from ChEMBL document CHEMBL1201862, “PubChem BioAssay data set” (2004).

A word on the EC50: it is the midpoint of the concentration-response curve. In general, AC50 refers to the concentration at which the activity in the assay is half-maximal. Usually IC50 stands for the midpoint of a concentration-inhibition curve.

The source made the active and inactive calls.

Sequence of Cytochrome P450 2C19 (P33261 whole entry): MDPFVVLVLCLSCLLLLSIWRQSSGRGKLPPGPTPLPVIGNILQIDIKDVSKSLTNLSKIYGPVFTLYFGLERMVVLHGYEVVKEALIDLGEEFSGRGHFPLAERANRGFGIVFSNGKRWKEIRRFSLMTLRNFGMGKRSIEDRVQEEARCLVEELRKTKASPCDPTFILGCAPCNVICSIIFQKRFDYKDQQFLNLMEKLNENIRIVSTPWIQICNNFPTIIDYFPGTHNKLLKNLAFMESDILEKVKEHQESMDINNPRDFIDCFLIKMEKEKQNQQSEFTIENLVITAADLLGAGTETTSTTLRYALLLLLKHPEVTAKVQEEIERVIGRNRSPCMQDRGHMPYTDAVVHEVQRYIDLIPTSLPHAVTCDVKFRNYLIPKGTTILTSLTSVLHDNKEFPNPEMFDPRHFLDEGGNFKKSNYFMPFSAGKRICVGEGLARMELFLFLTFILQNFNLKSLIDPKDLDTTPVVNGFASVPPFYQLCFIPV
Sequence of Paired box protein Pax-8 (Q06710 whole entry): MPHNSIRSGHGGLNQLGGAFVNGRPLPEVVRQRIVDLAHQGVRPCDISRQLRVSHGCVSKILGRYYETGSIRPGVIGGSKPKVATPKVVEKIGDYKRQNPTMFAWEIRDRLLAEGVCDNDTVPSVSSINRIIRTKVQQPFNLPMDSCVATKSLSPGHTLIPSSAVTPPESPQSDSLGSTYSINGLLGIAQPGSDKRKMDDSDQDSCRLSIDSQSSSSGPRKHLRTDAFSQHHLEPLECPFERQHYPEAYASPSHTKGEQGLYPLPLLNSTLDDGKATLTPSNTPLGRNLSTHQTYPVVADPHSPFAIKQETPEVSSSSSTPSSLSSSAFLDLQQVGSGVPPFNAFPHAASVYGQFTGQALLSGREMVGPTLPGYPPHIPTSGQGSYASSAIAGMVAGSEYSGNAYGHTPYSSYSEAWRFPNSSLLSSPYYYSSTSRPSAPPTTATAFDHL

One data set concerns BJ. As to the kind of experiment: cells. The data set is classed as functional, cell-based. To be noted: Homo sapiens.
With `CCCC1=Nc2cc(C(=O)NCCCOC(C)C)ccc2Sc2ccccc21`, the EC50 is 37.8 µM (active).
With `CCOc1ccc(NC(=O)C(c2ccccn2)N(C(=O)CCl)c2ccc(OC)cc2)cc1` (stereo not drawn), the EC50 was > 150 µM (not active).
The same measure, in the same setting: as for `O=C(Nc1ccc2c(c1)OCCO2)C(=O)c1c[nH]c2ccccc12`, the figure is 28.3 µM (active).
Regarding `COc1cc(/C=C2/SC(=S)N(CC(=O)Nc3cccnc3)C2=O)cc(OC)c1OC`, the EC50 was > 150 µM (not active).

The next data set concerns the target Paired box protein Pax-8 (Homo sapiens, UniProt Q06710). Kind of data set: PAX8 transcriptional activity inhibition in RMG-I – RMG-I cells, luciferase, cherry-pick, dose response (AID 687027).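 Note: luciferase reporter driven by Pax8 target thyroperoxidase promoter measured by SteadyGlo luminescence.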 Type of data set: functional, cell-based.
Conditions: not given
Regarding `CN1C(=O)/C(=C\C(=O)c2cccs2)c2ccccc21`, the AC50 was 23.1 µM (active).

For the next data set, the target named is T1, Cytochrome P450 1A2 (Homo sapiens, UniProt P05177).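 Note: PubChem cytochrome P450 panel assay, CYP1A2 panel member.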
T1 sequence (P05177 whole entry): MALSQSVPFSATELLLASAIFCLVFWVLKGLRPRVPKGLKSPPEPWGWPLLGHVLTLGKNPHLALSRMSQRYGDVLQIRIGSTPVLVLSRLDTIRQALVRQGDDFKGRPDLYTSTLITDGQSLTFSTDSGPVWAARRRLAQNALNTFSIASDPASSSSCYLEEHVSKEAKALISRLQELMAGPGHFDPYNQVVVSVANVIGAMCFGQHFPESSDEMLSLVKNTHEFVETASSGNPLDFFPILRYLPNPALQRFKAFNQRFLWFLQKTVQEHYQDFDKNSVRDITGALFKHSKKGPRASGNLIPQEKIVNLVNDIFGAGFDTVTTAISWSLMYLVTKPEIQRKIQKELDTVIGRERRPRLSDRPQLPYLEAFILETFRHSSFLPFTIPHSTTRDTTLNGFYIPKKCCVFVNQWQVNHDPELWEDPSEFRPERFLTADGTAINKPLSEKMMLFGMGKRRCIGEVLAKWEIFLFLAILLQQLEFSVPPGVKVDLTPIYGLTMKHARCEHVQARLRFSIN
Experiment: not given
Conditions: not given
Regarding `CCNc1ncc2nc(-c3ccc(OC)cc3)c(=O)n(Cc3cccs3)c2n1`, the AC50 is 0.631 µM (inconclusive).
For `Cc1ccc(/N=C/c2nc(/C=C/c3cccc([N+](=O)[O-])c3)oc2O)cc1`, the AC50 is 2 µM (inconclusive).

Another data set relates to BJ. Kind of data set: BJ-TERT fibroblast viability loss – cell-based, RAS-independent, luminescence, dose response (AID 1933). Type of data set: functional. To be noted: Homo sapiens.
With `CCCC1=Nc2cc(C(=O)NCCCOC(C)C)ccc2Sc2ccccc21`, the EC50 is 9.44 µM (inconclusive).
For the compound `CCOc1ccc(NC(=O)C(c2ccccn2)N(C(=O)CCl)c2ccc(OC)cc2)cc1` (stereo not drawn), the EC50 is given as > 150 µM (not active).
In the case of `O=C(Nc1ccc2c(c1)OCCO2)C(=O)c1c[nH]c2ccccc12`, the EC50 was 14.2 µM (active).
Regarding `COc1cc(/C=C2/SC(=S)N(CC(=O)Nc3cccnc3)C2=O)cc(OC)c1OC`, the EC50 was > 150 µM (not active).

A further data set has as its target Cytochrome P450 2C19 (Homo sapiens, UniProt P33261). Kind of data set: Cytochrome panel assay with activity outcomes. Panel member name: p450-cyp2c19 Compounds with AC50 equal or less than 10 uM are considered active.
Conditions: not given
The data set is classed as functional.
As to `O=C1[C@@H]2[C@H]3[C@H](O)[C@H](O)C/C(=N/OC[C@@H](O)COCc4ccco4)[C@@H]3CC[C@H]2C(=O)N1c1ccc(F)cc1F`, the AC50 result is “inconclusive”.

The same data set, now with this note: read-out: AC50.
Consider `CCS(=O)(=O)NCCc1cc2ccc(C)cc2nc1O`, for which the AC50 is 10 µM (inconclusive).
As to `Cc1ccc(/N=C/c2nc(/C=C/c3cccc([N+](=O)[O-])c3)oc2O)cc1`, the AC50 was 7.94 µM (inconclusive).

A further data set has as its system Streptococcus. As to the kind of experiment: GAS UMAA2166 growth inhibition – luminescence, BacTiterGlo, counter-screen for streptokinase expression inhibitor project, dose response (AID 1915).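 Note: potency for reduction of bacterial viability or growth.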
Conditions: not given
Type of data set: functional, organism-based. A general note: Counterscreens check selectivity or assay interference.
On to `CCCCCCCCO/C(O)=C1\C(C)=Nc2nnnn2C1c1cccs1` (stereo not drawn), for which the EC50 is 7.3 µM (active).

Test system in the next data set: not listed separately
Kind of data set: Trypanosoma cruzi growth suppression in host cells – NIH3T3 host cells, beta-gal luminescence, confirmation (AID 2044).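 Note: intracellular parasites grown in NIH/3T3 mouse fibroblasts as host cells; luminescent beta-galactosidase reporter signal from transgenic T. cruzi replicating inside host cells; inhibitors lower the luminescence signal.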 Type of data set: functional, cell-based.
Conditions: not given
For the compound `Oc1nc(-c2ccccn2)nc(C(F)(F)F)c1Br`, the EC50 is 1.86 µM (active).

Test system in another data set: not listed separately
Kind of data set: NIH3T3 cell viability loss – ATP luminescence, mouse fibroblasts, counter-screen, dose response (AID 2010).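 Note: cells exposed to compound for about 90 hours before reading.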 The data set is classed as functional, cell-based.
Conditions: not given
For the compound `Oc1nc(-c2ccccn2)nc(C(F)(F)F)c1Br`, the EC50 was 10.9 µM (active).

Test system in the next data set: not listed separately
As to the kind of experiment: Luminescence Cell-Based Dose Retest to Confirm Inhibitors of Cancer Stem Cells. [Related pubchem assays (depositor defined):AID2717, AID2721]. The data set is classed as functional. To be noted: Homo sapiens.
Take `Cc1ccc(-c2ccc([C@H]3[C@@H]4C=CCC[C@@]4(C)C(=O)N3Cc3ccccc3)c(F)c2)cc1`: the AC50 was 3.55 µM (active).
Take `O=C(Nc1ccc2c(c1)OCCO2)C(=O)c1c[nH]c2ccccc12`: the AC50 was 0.718 µM (active).
`CCCCCCCCO/C(O)=C1\C(C)=Nc2nnnn2C1c1cccs1` (stereo not drawn): the AC50 was 6.65 µM (active).

The next data set relates to Streptococcus sp. 'group A'. As to the kind of experiment: Streptococcus pyogenes SK(-)GAS viability under kanamycin – luminescence, BacTiterGlo, confirmation, counter-screen for streptokinase expression inhibitor project, dose response (AID 1900). Type of data set: functional, organism-based.
Conditions: not given
On to `CCCCCCCCO/C(O)=C1\C(C)=Nc2nnnn2C1c1cccs1` (stereo not drawn), for which the EC50 was 2.33 µM (active).

For another data set, the target named is T2, Calpain-2 catalytic subunit (Sus scrofa, UniProt P43367).
T2 sequence (P43367 whole entry): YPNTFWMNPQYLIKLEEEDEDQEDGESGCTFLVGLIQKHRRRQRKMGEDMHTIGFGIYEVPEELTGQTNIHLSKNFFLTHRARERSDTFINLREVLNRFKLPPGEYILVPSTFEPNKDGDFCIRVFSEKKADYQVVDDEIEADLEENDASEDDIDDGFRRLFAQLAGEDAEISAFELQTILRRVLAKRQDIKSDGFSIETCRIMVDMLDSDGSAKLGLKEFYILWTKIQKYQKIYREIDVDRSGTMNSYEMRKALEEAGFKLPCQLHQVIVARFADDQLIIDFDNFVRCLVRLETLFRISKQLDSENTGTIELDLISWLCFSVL
Kind of data set: m-calpain protease blockers, concentration series – biochemical, fluorogenic peptide substrate, dose response (AID 1420). The data set is classed as functional.
Conditions: not given
Take `CCC(=O)OCC(=O)c1cc(C)n(-c2ccc(Br)cc2)c1C`: the IC50 was 6.49 µM (not active).
Turning to `CC(OC(=O)c1ccccc1Nc1ccc(SC(F)F)cc1)C(N)=O` (stereo not drawn), the IC50 is on record as 12 µM (not active).
The same measure, in the same setting: as for `CSCCC(NS(=O)(=O)c1ccc(Cl)cc1)C(=O)OCC(=O)N1CCCc2ccccc21` (stereo not drawn), the figure is 14.6 µM (not active); as for `COc1ccc(C(NC(=O)C(C)C)c2c(O)ccc3ccccc23)cc1OC` (stereo not drawn), 18.4 µM (not active).
As for `Cc1ccc(-c2ccc([C@H]3[C@@H]4C=CCC[C@@]4(C)C(=O)N3Cc3ccccc3)c(F)c2)cc1`, the half-inhibitory concentration (IC50) was 3.65 µM (not active).
In the case of `CCN(CC)S(=O)(=O)c1ccc(C(=O)NCc2ccc3c(c2)OCO3)cc1`, the IC50 is reported as > 50 µM (not active).
In the case of `O=C(CC1CC2CCC1C2)OCC(=O)c1c[nH]c2ccccc12` (stereo not drawn), the IC50 is recorded as 27.5 µM (not active).
As for `Cc1cc(Br)ccc1SCC(=O)OCC(=O)c1c(N)n(C)c(=O)n(C)c1=O`, the IC50 is 10.8 µM (active).
With `CCCCCCCCO/C(O)=C1\C(C)=Nc2nnnn2C1c1cccs1` (stereo not drawn), the IC50 is 3.59 µM (not active).

For the next data set, the target named is Cytochrome P450 2C9 (Homo sapiens, UniProt P11712).
Sequence of Cytochrome P450 2C9 (P11712 whole entry): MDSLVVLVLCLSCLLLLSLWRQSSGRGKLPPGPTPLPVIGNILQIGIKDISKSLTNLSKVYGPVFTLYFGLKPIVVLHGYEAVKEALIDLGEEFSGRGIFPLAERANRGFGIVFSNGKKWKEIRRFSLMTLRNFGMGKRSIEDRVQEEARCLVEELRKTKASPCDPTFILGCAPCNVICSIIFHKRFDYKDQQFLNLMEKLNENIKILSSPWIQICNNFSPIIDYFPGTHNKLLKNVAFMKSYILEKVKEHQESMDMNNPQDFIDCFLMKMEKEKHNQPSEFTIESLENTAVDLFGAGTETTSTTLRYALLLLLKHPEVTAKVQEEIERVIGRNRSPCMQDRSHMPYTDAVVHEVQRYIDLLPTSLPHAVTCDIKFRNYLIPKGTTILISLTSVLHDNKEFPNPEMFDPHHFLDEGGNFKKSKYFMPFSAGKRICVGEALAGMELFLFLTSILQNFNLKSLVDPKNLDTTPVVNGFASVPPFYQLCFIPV
Experiment: not given
Conditions: not given
Regarding `Cc1ccc(/N=C/c2nc(/C=C/c3cccc([N+](=O)[O-])c3)oc2O)cc1`, the AC50 was 17.8 µM (inconclusive).

Test system in another data set: not listed separately
Kind of data set: NIH-3T3 fibroblast cytotoxicity, dose response, cytotoxicity control, cell-based, fluorescence, Alamar Blue, secondary assay (AID 2327).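 Note: NIH-3T3 mouse fibroblasts cultured with fluconazole at 8 µg/mL.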 Type of data set: functional.
Conditions: not given
A general note: The colour change of resazurin is a common sign of viable cells or microbes.
In the case of `CN1C(=O)/C(=C\C(=O)c2cccs2)c2ccccc21`, the EC50 is > 150 µM (inconclusive).
For `Oc1nc(-c2ccccn2)nc(C(F)(F)F)c1Br`, the EC50 is > 150 µM (inactive).

The target of the next data set is Cytochrome P450 3A4 (Homo sapiens, UniProt P08684).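 Note: CYP3A4 tested as one member of a cytochrome P450 panel screen.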
Sequence of Cytochrome P450 3A4 (P08684 whole entry): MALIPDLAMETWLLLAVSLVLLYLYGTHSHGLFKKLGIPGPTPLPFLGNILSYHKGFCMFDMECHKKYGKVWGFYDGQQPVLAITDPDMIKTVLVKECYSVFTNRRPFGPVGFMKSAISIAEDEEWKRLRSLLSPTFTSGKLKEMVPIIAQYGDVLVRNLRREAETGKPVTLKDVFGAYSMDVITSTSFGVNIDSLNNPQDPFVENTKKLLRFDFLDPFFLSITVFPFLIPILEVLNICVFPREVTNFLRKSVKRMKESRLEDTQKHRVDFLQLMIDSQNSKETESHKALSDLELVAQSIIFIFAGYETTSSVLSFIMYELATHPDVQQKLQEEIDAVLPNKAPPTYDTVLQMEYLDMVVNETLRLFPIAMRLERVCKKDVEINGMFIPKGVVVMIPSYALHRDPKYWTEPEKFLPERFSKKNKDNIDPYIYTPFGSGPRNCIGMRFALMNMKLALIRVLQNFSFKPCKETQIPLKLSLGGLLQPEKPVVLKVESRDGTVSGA
Experiment: not given
Conditions: not given
For `O=C1[C@@H]2[C@H]3[C@H](O)[C@H](O)C/C(=N/OC[C@@H](O)COCc4ccco4)[C@@H]3CC[C@H]2C(=O)N1c1ccc(F)cc1F`, the AC50 was 3.16 µM (inconclusive).
As to `CCNc1ncc2nc(-c3ccc(OC)cc3)c(=O)n(Cc3cccs3)c2n1`, the AC50 is 7.94 µM (inconclusive).
Still for that read-out and setting: as for `CCS(=O)(=O)NCCc1cc2ccc(C)cc2nc1O`, the figure is 39.8 µM (inconclusive); as for `Cc1ccc(/N=C/c2nc(/C=C/c3cccc([N+](=O)[O-])c3)oc2O)cc1`, 3.16 µM (inconclusive).

Test system in a further data set: not listed separately
Kind of data set: DRD fibroblast viability loss – cell-based, non-viral oncogenic, luminescence, dose response (AID 1934). Type of data set: functional. To be noted: Homo sapiens.
Take `CCCC1=Nc2cc(C(=O)NCCCOC(C)C)ccc2Sc2ccccc21`: the EC50 is 5.1 µM (active).
The same measure, in the same setting: as for `CCOc1ccc(NC(=O)C(c2ccccn2)N(C(=O)CCl)c2ccc(OC)cc2)cc1` (stereo not drawn), the figure is > 150 µM (not active).
`O=C(Nc1ccc2c(c1)OCCO2)C(=O)c1c[nH]c2ccccc12`: the EC50 is 4.19 µM (inconclusive).
Turning to `COc1cc(/C=C2/SC(=S)N(CC(=O)Nc3cccnc3)C2=O)cc(OC)c1OC`, the EC50 is > 150 µM (not active).

Test system in a further data set: not listed separately
As to the kind of experiment: fluconazole-exposed Candida albicans growth modulators – fluorescence, retest, confirmation (AID 2467). Type of data set: functional, cell-based.
Conditions: not given
As to `CN1C(=O)/C(=C\C(=O)c2cccs2)c2ccccc21`, the EC50 is given as > 38 µM (not active).
Take `Oc1nc(-c2ccccn2)nc(C(F)(F)F)c1Br`: the EC50 is 0.596 µM (active).

The next data set has as its system BJ. As to the kind of experiment: BJ-TERT-LT-ST fibroblast viability loss – cell-based, RAS-independent, luminescence, dose response (AID 1935).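 Note: BJ fibroblasts immortalized with TERT plus LT and ST oncogenes.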 Type of data set: functional. To be noted: Homo sapiens.
With `CCCC1=Nc2cc(C(=O)NCCCOC(C)C)ccc2Sc2ccccc21`, the EC50 was 17.2 µM (inconclusive).
As to `CCOc1ccc(NC(=O)C(c2ccccn2)N(C(=O)CCl)c2ccc(OC)cc2)cc1` (stereo not drawn), the EC50 was > 150 µM (inconclusive).
For the compound `O=C(Nc1ccc2c(c1)OCCO2)C(=O)c1c[nH]c2ccccc12`, the EC50 is 24.5 µM (inconclusive).
Take `COc1cc(/C=C2/SC(=S)N(CC(=O)Nc3cccnc3)C2=O)cc(OC)c1OC`: the EC50 was > 150 µM (inconclusive).

For the next data set, the target named is T3, Streptokinase A (Streptococcus pyogenes serotype M1, UniProt P10520).
T3 sequence (P10520 whole entry): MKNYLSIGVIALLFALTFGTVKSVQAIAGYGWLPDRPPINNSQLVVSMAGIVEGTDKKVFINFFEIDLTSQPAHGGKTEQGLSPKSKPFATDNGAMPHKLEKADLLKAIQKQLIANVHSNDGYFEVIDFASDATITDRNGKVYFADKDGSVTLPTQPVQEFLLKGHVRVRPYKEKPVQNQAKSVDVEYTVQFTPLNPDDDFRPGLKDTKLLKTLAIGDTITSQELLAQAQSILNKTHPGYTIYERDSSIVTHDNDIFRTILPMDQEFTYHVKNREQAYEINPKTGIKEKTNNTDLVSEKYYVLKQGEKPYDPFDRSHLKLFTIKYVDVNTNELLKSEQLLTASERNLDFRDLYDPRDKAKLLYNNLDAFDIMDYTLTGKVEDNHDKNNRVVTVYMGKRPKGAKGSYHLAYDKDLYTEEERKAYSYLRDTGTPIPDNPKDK
As to the kind of experiment: viability-normalized secreted streptokinase activity reduction – plasminogen activation absorbance, OD405, dose response (AID 1914).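 Note: secreted streptokinase activity via plasminogen activation per viability signal from cell pellet.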 Type of data set: functional, Streptococcus pyogenes M1 GAS.
Conditions: not given
In the case of `CCCCCCCCO/C(O)=C1\C(C)=Nc2nnnn2C1c1cccs1` (stereo not drawn), the concentration giving a half-maximal response (EC50) is reported as > 50 µM (not active).
